{
  "source": "patent EP0311163A2",
  "about": "“Use of site-specific modified lipolytic enzymes for the selective hydrolysis of organized lipid structures” (DUPHAR INTERNATIONAL RESEARCH B.V, priority 1987, dated 1989)",
  "experiment_in_all_cases": "Kinetic measurement with micellar L-dioctanoyl-lecithin (Vmax)",
  "assay_type_in_all_cases": "biochemical",
  "settings_in_all_cases": "micellar substrate, titration of fatty acid with 10.3 mM NaOH at pH 6.0",
  "key": {"[1]": {"target": "T1, Porcine pancreatic phospholipase A₂ (PLA), native (Sus scrofa, UniProt P00592)", "T1 construct": "pancreatic pro-PLA's can be purified and converted into the corresponding PLA's; from tissue; host or cells: pig pancreas", "T1 sequence (P00592 23-146)": "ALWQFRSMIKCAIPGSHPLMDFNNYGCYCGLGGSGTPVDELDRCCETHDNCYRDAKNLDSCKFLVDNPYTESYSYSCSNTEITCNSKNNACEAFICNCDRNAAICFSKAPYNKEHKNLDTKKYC", "procedure": "(§1) […]. A value of 8.8 is used for the N-terminal shortened bovine pancreas enzyme fragments missing Trp³. • b. The binding of the PLA's to micellar cis-9-octadecenyl phosphocholine is determined by means of UV absorption difference spectroscopy (De Aranjo et al., Biochem. 18, (1979), 580-586;; and Hille et al., Biochem. 20, (1981), 4068-4073). • c. Monolayer experiments are carried out using the zero order through with two compartments and the surface barostat technique for measuring phospholipid hydrolysis (Verger and De Haas, Chem. Phys. Lipids, 10, (1973), 127-136). Calculation of the induction time (τ) is carried out as described by Verger et al. J. Biol. Chem. 248 (1973), 4023-4034). Surface tension (π) is measured by means of the plate method by Wilhelmy using a thin platinum plate attached to a Beckman R II C Model LM 600 microbalance. • d. Kinetic measurements with micellar diC₈PC are carried out according to De Haas et al, Biochem. Biophys. Acta, 239, (1971) 252-266.\n(§2) This means that the inherent catalytic activity of these pPLA's is not affected by the site-specific acylation. Although acylation of Lys¹¹⁶ with acetyl or maleyl results in a lower Vmax, the remaining activity is sufficient to hydrolyse micellar short chain lecithins effectively. TABLE A"}, "[2]": {"target": "T2, Bovine pancreatic phospholipase A₂, [Arg⁶]-AMPA (Bos taurus, UniProt P00593, N28R)", "T2 construct": "fully ε-amidinated according to the method by Wallace and Harris, Biochem. J., 217, (1984), 589-594, and converted into AMPA; from tissue; host or cells: bovine pancreas", "T2 sequence (P00593 23-145 N28R)": "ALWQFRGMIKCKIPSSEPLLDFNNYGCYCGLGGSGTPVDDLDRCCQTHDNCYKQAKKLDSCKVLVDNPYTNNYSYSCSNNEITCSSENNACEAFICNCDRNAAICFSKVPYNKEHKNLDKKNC", "procedure": "as §1, §2"}, "[3]": {"tested_on": "Porcine pancreatic phospholipase A₂, [ε-NH₂-Lys¹¹⁶]AMPA", "procedure": "as §1, §2"}, "[4]": {"tested_on": "Porcine pancreatic phospholipase A₂, [ε-Mal-Lys¹¹⁶]AMPA", "procedure": "as §1, §2"}, "[5]": {"target": "T3, Bovine pancreatic phospholipase A₂, AMPA (fully ε-amidinated PLA) (Bos taurus, UniProt P00593)", "T3 construct": "fully ε-amidinated according to the method by Wallace and Harris, Biochem. J., 217, (1984), 589-594, and converted into AMPA; from tissue; host or cells: bovine pancreas; chemically amidinated as the pro-enzyme, then converted to the active enzyme", "T3 sequence (P00593 23-145)": "as the sequence (P00593 23-145 N28R) above, with R6N counted along it", "procedure": "as §1, §2"}, "[6]": {"target": "T4, Bovine pancreatic phospholipase A₂ (PLA), native (Bos taurus, UniProt P00593)", "T4 construct": "pancreatic pro-PLA's can be purified and converted into the corresponding PLA's; from tissue; host or cells: bovine pancreas", "T4 sequence (P00593 23-145)": "as the sequence (P00593 23-145 N28R) above, with R6N counted along it", "procedure": "as §1, §2"}, "[7]": {"target": "T5, Porcine pancreatic phospholipase A₂, AMPA (fully ε-amidinated PLA) (Sus scrofa, UniProt P00592)", "T5 construct": "fully ε-amidinated according to the method by Wallace and Harris, Biochem. J., 217, (1984), 589-594, and converted into AMPA; from tissue; host or cells: pig pancreas; chemically amidinated as the pro-enzyme, then converted to the active enzyme", "T5 sequence (P00592 23-146)": "as the sequence (P00592 23-146) above", "procedure": "as §1, §2"}, "[8]": {"tested_on": "Porcine pancreatic phospholipase A₂, [ε-Cap-Lys¹¹⁶]AMPA", "procedure": "as §1, §2"}, "[9]": {"target": "T6, Bovine pancreatic phospholipase A₂, [Arg⁶,ε-Pal-Lys¹⁰]-AMPA (Bos taurus, UniProt P00593, N28R)", "T6 construct": "Conversion of fully ε-amidinated bovine pancreatic AMPrec in [Arg⁶, ε-Pal-Lys¹⁰]-AMPA; from tissue; host or cells: bovine pancreas; semisynthetic: amidinated fragment 11-123 re-elongated with Pal-Lys, Ile, Met and Ala.Leu.Trp.Gln.Phe.Arg.Gly", "T6 sequence (P00593 23-145 N28R)": "as the sequence (P00593 23-145 N28R) above", "procedure": "as §1, §2"}, "[10]": {"tested_on": "Porcine pancreatic phospholipase A₂, [ε-Ol-Lys¹¹⁶]AMPA", "procedure": "as §1, §2"}, "[11]": {"tested_on": "Porcine pancreatic phospholipase A₂, [ε-Ac-Lys¹¹⁶]AMPA", "procedure": "as §1, §2"}, "[12]": {"tested_on": "Porcine pancreatic phospholipase A₂, [ε-Pal-Lys¹¹⁶]AMPA", "procedure": "as §1, §2"}, "[13]": {"tested_on": "Porcine pancreatic phospholipase A₂, [ε-Lau-Lys¹¹⁶]AMPA", "procedure": "as §1, §2"}},
  "data": [
    {"smiles": "CCCCCCCC(=O)OC[C@H](COP(=O)([O-])OCC[N+](C)(C)C)OC(=O)CCCCCCC", "note": "[L-dioctanoyl-lecithin, 1,2-dioctanoyl-sn-glycero-3-phosphocholine]", "values": [
      {"measurement": "Vmax micellar L-dioctanoyl-lecithin", "setting": "[1]", "result": 2200, "unit": "µequiv. min⁻¹ mg⁻¹"},
      {"measurement": "Vmax micellar L-dioctanoyl-lecithin", "setting": "[2]", "result": 5900, "unit": "µequiv. min⁻¹ mg⁻¹"},
      {"measurement": "Vmax micellar L-dioctanoyl-lecithin", "setting": "[3]", "result": 2000, "unit": "µequiv. min⁻¹ mg⁻¹"},
      {"measurement": "Vmax micellar L-dioctanoyl-lecithin", "setting": "[4]", "result": 405, "unit": "µequiv. min⁻¹ mg⁻¹"},
      {"measurement": "Vmax micellar L-dioctanoyl-lecithin", "setting": "[5]", "result": 2300, "unit": "µequiv. min⁻¹ mg⁻¹"},
      {"measurement": "Vmax micellar L-dioctanoyl-lecithin", "setting": "[6]", "result": 3000, "unit": "µequiv. min⁻¹ mg⁻¹"},
      {"measurement": "Vmax micellar L-dioctanoyl-lecithin", "setting": "[7]", "result": 1650, "unit": "µequiv. min⁻¹ mg⁻¹"},
      {"measurement": "Vmax micellar L-dioctanoyl-lecithin", "setting": "[8]", "result": 2100, "unit": "µequiv. min⁻¹ mg⁻¹"},
      {"measurement": "Vmax micellar L-dioctanoyl-lecithin", "setting": "[9]", "result": 5600, "unit": "µequiv. min⁻¹ mg⁻¹"},
      {"measurement": "Vmax micellar L-dioctanoyl-lecithin", "setting": "[10]", "result": 2600, "unit": "µequiv. min⁻¹ mg⁻¹"},
      {"measurement": "Vmax micellar L-dioctanoyl-lecithin", "setting": "[11]", "result": 755, "unit": "µequiv. min⁻¹ mg⁻¹"},
      {"measurement": "Vmax micellar L-dioctanoyl-lecithin", "setting": "[12]", "result": 2200, "unit": "µequiv. min⁻¹ mg⁻¹"},
      {"measurement": "Vmax micellar L-dioctanoyl-lecithin", "setting": "[13]", "result": 2500, "unit": "µequiv. min⁻¹ mg⁻¹"}
    ]}
  ]
}
